System: groundwater microorganisms
Conditions: both DNAPL test sites (MW-12R, RW-1)
Text: The test sites are located at a property where fractured bedrock has been contaminated with PCE and TCE DNAPL to a depth of approximately 120 feet below ground surface.

Structure (SMILES): CC(=O)O [acetic acid]
- adaptation of groundwater microorganisms (after injection of acetic acid, FIG. 4): increased
- change in biomass of groundwater microorganisms (fractured bedrock, after vs before injection of acetic acid, FIG. 3): increased
